Experimental data as given in US20200288721A1, “PESTICIDAL COMPOSITION COMPRISING AN OXIME CARBAMATE AND USE THEREOF” (priority 2017, published 2020).

assay: Stability Test: storage of SL formulations in sealed bottles at 54° C. for 14 days; type: physicochemical; details: acid at 1% (Table 1) or 1-3% (Table 3) in 24% oxamyl SL
Description: (§1) Samples of the compositions summarised in Table 1 above were packaged in commercially available 500 ml fluorinated plastic bottles and the bottles sealed. The bottles were stored at 54° C. for 14 days. Thereafter, the bottles were cooled to room temperature and their appearance assessed. The concentration of the active ingredient, oxamyl, in each bottle was measured.
as §1, with “Table 3” for “Table 1”

Structure (SMILES)	stabilisation / chemical degradation of the oxamyl active ingredient (in words)
CC(=O)O [Acetic acid]	significantly reduced the chemical degradation
OB(O)O [boric acid]	not effective in stabilising the oxamyl active ingredient
O=C(O)CC(O)(CC(=O)O)C(=O)O [citric acid]	significantly reduced the chemical degradation
Cl [hydrochloric acid]	significantly reduced the chemical degradation
O=P(O)(O)O [phosphoric acid]	significantly reduced the chemical degradation
